We go through five compounds from ChEMBL document CHEMBL3588811, “Boehmenan, a lignan from Hibiscus ficulneus, showed Wnt signal inhibitory activity” (Bioorg Med Chem Lett, 2015).

pIC50: −log10 of the molar value. Calls of active or inactive are those of the source. The calls are words filed in the database; no cut-off is given here.

Experiment [1] is described as follows: Cytotoxicity against human Wnt-dependent DLD1 cells after 24 hrs by fluorometric microculture cytotoxicity assay. Format: functional, cell-based. The note with it: DLD-1, 24 h.
The test system of experiment [2] is HEK293. Briefly: Inhibition of Wnt/beta-catenin signaling in HEK293 cells stably transfected with FOP reporter gene assessed as TCF/beta-catenin transcriptional activity after 24 hrs by FOP activity/luciferase reporter gene assay. The class given is cell-based. The note with it: Homo sapiens.
Experiment [3] deals with HEK293. Briefly: Cytotoxicity against human HEK293 cells after 24 hrs by fluorometric microculture cytotoxicity assay. The note with it: HEK293, 24 h. Format: cell-based.
The subject of another experiment is HCT-116. Briefly: Cytotoxicity against human Wnt-dependent HCT116 cells after 24 hrs by fluorometric microculture cytotoxicity assay. The class given is functional, cell-based. The note with it: HCT-116, 24 h.
For a further experiment, the system named is SW480. Briefly: Cytotoxicity against human Wnt-dependent SW480 cells after 24 hrs by fluorometric microculture cytotoxicity assay. Format: functional, cell-based. Particulars: SW480, 24 h.
The test system of the next experiment is RKO. Briefly: Cytotoxicity against human Wnt-independent RKO cells after 24 hrs by fluorometric microculture cytotoxicity assay. The class given is functional, cell-based.
For experiment [4], the system named is HEK293. The experiment can be described thus: Inhibition of Wnt/beta-catenin signaling in HEK293 cells stably transfected with TOP reporter gene assessed as TCF/beta-catenin transcriptional activity after 24 hrs by TOP activity/luciferase reporter gene assay. Format: cell-based. The note with it: Homo sapiens; for pIC50: HEK293, 24 h. (In a reporter assay the amount or activity of a reporter protein is the signal.)

For experiment [5], the system named is HEK293. The experiment can be described thus: Reduction in beta-catenin level in human HEK293 cell cytosol stably transfected with TOP reporter gene at 1 to 20 uM after 24 hrs by Western blot analysis. The class given is functional, cell-based.
Experiment [6] concerns HEK293. The experiment can be described thus: Reduction in c-myc level in human HEK293 cell nucleus stably transfected with TOP reporter gene at 1 to 20 uM after 24 hrs by Western blot analysis. Format: functional, cell-based.
The subject of experiment [7] is HEK293. The experiment can be described thus: Reduction in beta-catenin level in human HEK293 cell nucleus stably transfected with TOP reporter gene at 1 to 20 uM after 24 hrs by Western blot analysis. Format: functional, cell-based.
Experiment [8] deals with HEK293. Briefly: Reduction in beta-catenin level in human HEK293 cell nucleus stably transfected with TOP reporter gene at 20 uM after 24 hrs by Western blot analysis in presence of 1 uM MG132. The class given is functional, cell-based.

Consider `COc1cc(/C=C/C(=O)OCCCc2ccc(O[C@@H](COC(=O)/C=C/c3ccc(O)c(OC)c3)[C@@H](O)c3ccc(O)c(OC)c3)c(OC)c2)ccc1O` (relative stereo), for which the pIC50 was below 4.40 in experiment [1]; 4.58 in the experiment with HEK293 [3]; below 4.40 in the experiment on HCT-116; below 4.40 with SW480; 4.44 in the experiment with RKO; 5.20 in the experiment on HEK293 [4]. Further, the outcome in the experiment on HEK293 [2] was inactive. Further, the inhibition result in the experiment on HEK293 [4] was “Dose-dependent effect”.

For `COc1cc(/C=C/C(=O)OCCCc2cc(OC)c3c(c2)[C@@H](COC(=O)/C=C/c2ccc(O)c(OC)c2)[C@H](c2cc(OC)c(O)c(OC)c2)O3)ccc1O`, the pIC50 in experiment [1] is below 4.40; in the experiment on HEK293 [3], 4.44; in the experiment with HCT-116, below 4.40; with SW480, below 4.40; in the experiment on RKO, below 4.40; in the experiment on HEK293 [4], 5.72. In addition, the outcome with HEK293 [2] was inactive. Also, in the experiment with HEK293 [4], the inhibition entry is “Dose-dependent effect”.

Consider `COc1cc(/C=C/C(=O)OCCCc2cc(OC)c3c(c2)[C@@H](COC(=O)/C=C/c2ccc(O)c(OC)c2)[C@H](c2ccc(O)c(OC)c2)O3)ccc1O`, for which the pIC50 in experiment [1] is below 4.40; with HEK293 [3], 4.52; in the experiment with HCT-116 it was below 4.64; in the experiment with SW480, below 4.40; in the experiment on RKO it was 4.60; with HEK293 [4], 6.00. For the same compound, the result in the experiment on HEK293 [2] was inactive. Moreover, the inhibition result in the experiment with HEK293 [5], in the experiment with HEK293 [6] and with HEK293 [7] was “Active” each time. In addition, the inhibition entry in the experiment with HEK293 [8] is “inactive”. For the same compound, in the experiment with HEK293 [4], the inhibition entry was “Dose-dependent effect”.

For the compound `COc1cc(/C=C/C(=O)OCCCc2ccc(O[C@@H](COC(=O)/C=C/c3ccc(O)c(OC)c3)[C@@H](O)c3ccc(O)c(OC)c3)c(O)c2)ccc1O`, the pIC50 in experiment [1] was below 4.40; with HEK293 [3] it was 4.62; in the experiment on HCT-116, below 4.41; in the experiment with SW480, below 4.40; in the experiment on RKO, 4.64; with HEK293 [4], 5.35. Further, the result in the experiment on HEK293 [2] was inactive. Besides, the inhibition result in the experiment with HEK293 [4] is “Dose-dependent effect”.

Take `CC1(C)CC[C@]2(C(=O)O)CC[C@]3(COC(=O)/C=C/c4ccc(O)c(O)c4)C(=CC[C@@H]4[C@@]5(C)CC[C@H](OC(=O)/C=C/c6ccc(O)c(O)c6)C(C)(C)[C@@H]5CC[C@]43C)[C@@H]2C1`: the pIC50 is below 4.40 in experiment [1]; 4.53 in the experiment with HEK293 [3]; below 4.40 with HCT-116; below 4.40 in the experiment with SW480; below 4.40 with RKO; 4.83 with HEK293 [4].

A word on the pIC50: it is the IC50 on a negative log10 scale, so that one unit is a factor of ten.
